Results taken from PubChem BioAssay (NCI).
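These data come from cells grown in 96-well plates and exposed to compound for 48 hours at five concentrations. TGI marks complete inhibition of growth.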

How the values were obtained:
Test in all cases: NCI anticancer screen, dose series, 48 h
786-0 renal = test system: 786-0 renal
A498 renal = test system: A498 renal
A549 NSCLC = test system: A549 NSCLC
ACHN renal = test system: ACHN renal
BT-549 breast = test system: BT-549 breast
CAKI-1 renal = test system: CAKI-1 renal
CCRF-CEM leukemia = test system: CCRF-CEM leukemia
COLO 205 colon = test system: COLO 205 colon
DU-145 prostate = test system: DU-145 prostate
EKVX NSCLC = test system: EKVX NSCLC
HCC-2998 colon = test system: HCC-2998 colon
HCT-116 colon = test system: HCT-116 colon
HCT-15 colon = test system: HCT-15 colon
HL-60(TB) leukemia = test system: HL-60(TB) leukemia
HOP-62 NSCLC = test system: HOP-62 NSCLC
HOP-92 NSCLC = test system: HOP-92 NSCLC
HS 578T breast = test system: HS 578T breast
HT29 colon = test system: HT29 colon
IGROV1 ovarian = test system: IGROV1 ovarian
K-562 leukemia = test system: K-562 leukemia
KM12 colon = test system: KM12 colon
LOX IMVI melanoma = test system: LOX IMVI melanoma
M14 melanoma = test system: M14 melanoma
MALME-3M melanoma = test system: MALME-3M melanoma
MCF7 breast = test system: MCF7 breast
MDA-MB-231 breast = test system: MDA-MB-231 breast
MDA-MB-435 = test system: MDA-MB-435
MDA-N = test system: MDA-N
MOLT-4 leukemia = test system: MOLT-4 leukemia
NCI-H226 lung = test system: NCI-H226 lung
NCI-H23 lung = test system: NCI-H23 lung
NCI-H460 lung = test system: NCI-H460 lung
NCI-H522 lung = test system: NCI-H522 lung
NCI/ADR-RES ovarian = test system: NCI/ADR-RES ovarian
OVCAR-3 ovarian = test system: OVCAR-3 ovarian
OVCAR-4 ovarian = test system: OVCAR-4 ovarian
OVCAR-5 ovarian = test system: OVCAR-5 ovarian
OVCAR-8 ovarian = test system: OVCAR-8 ovarian
PC-3 prostate = test system: PC-3 prostate
RPMI-8226 leukemia = test system: RPMI-8226 leukemia
RXF 393 renal = test system: RXF 393 renal
SF-268 CNS = test system: SF-268 CNS
SF-295 CNS = test system: SF-295 CNS
SF-539 CNS = test system: SF-539 CNS
SK-MEL-2 melanoma = test system: SK-MEL-2 melanoma
SK-MEL-28 melanoma = test system: SK-MEL-28 melanoma
SK-MEL-5 melanoma = test system: SK-MEL-5 melanoma
SK-OV-3 ovarian = test system: SK-OV-3 ovarian
SN12C renal = test system: SN12C renal
SNB-19 CNS = test system: SNB-19 CNS
SNB-75 CNS = test system: SNB-75 CNS
SR leukemia = test system: SR leukemia
SW-620 colon = test system: SW-620 colon
T-47D breast = test system: T-47D breast
TK-10 renal = test system: TK-10 renal
U251 CNS = test system: U251 CNS
UACC-257 melanoma = test system: UACC-257 melanoma
UACC-62 melanoma = test system: UACC-62 melanoma
UO-31 renal = test system: UO-31 renal

SMILES: O=c1[nH]c2cc(C(F)(F)F)ccc2nc1CBr
- TGI (786-0 renal): 19.2 µM
- TGI (A498 renal): 33 µM
- TGI (A549 NSCLC): 27.4 µM
- TGI (ACHN renal): 20.2 µM
- TGI (BT-549 breast): 27.5 µM
- TGI (CAKI-1 renal): 17.5 µM
- TGI (CCRF-CEM leukemia): 5.73 µM
- TGI (COLO 205 colon): 35.8 µM
- TGI (DU-145 prostate): 23.1 µM
- TGI (EKVX NSCLC): 29.5 µM
- TGI (HCC-2998 colon): 33.2 µM
- TGI (HCT-116 colon): 28.7 µM
- TGI (HCT-15 colon): 33.3 µM
- TGI (HL-60(TB) leukemia): 14.3 µM
- TGI (HOP-62 NSCLC): 28.7 µM
- TGI (HOP-92 NSCLC): 11.1 µM
- TGI (HS 578T breast): 56.6 µM
- TGI (HT29 colon): 38.6 µM
- TGI (IGROV1 ovarian): 24.5 µM
- TGI (K-562 leukemia): > 100 µM
- TGI (KM12 colon): 31.4 µM
- TGI (LOX IMVI melanoma): 12.8 µM
- TGI (M14 melanoma): 21.1 µM
- TGI (MALME-3M melanoma): 27.4 µM
- TGI (MCF7 breast): 21.7 µM
- TGI (MDA-MB-231 breast): 35.6 µM
- TGI (MDA-MB-435): 26.2 µM
- TGI (MDA-N): 26.9 µM
- TGI (MOLT-4 leukemia): > 100 µM
- TGI (NCI-H226 lung): 26.7 µM
- TGI (NCI-H23 lung): 38.6 µM
- TGI (NCI-H460 lung): 32.3 µM
- TGI (NCI-H522 lung): 1.52 µM
- TGI (NCI/ADR-RES ovarian): 50.4 µM
- TGI (OVCAR-3 ovarian): 23.7 µM
- TGI (OVCAR-4 ovarian): 32.3 µM
- TGI (OVCAR-5 ovarian): 29.3 µM
- TGI (OVCAR-8 ovarian): 39.6 µM
- TGI (PC-3 prostate): 26.3 µM
- TGI (RPMI-8226 leukemia): 69.8 µM
- TGI (RXF 393 renal): 25.2 µM
- TGI (SF-268 CNS): 59.1 µM
- TGI (SF-295 CNS): 28.9 µM
- TGI (SF-539 CNS): 16.1 µM
- TGI (SK-MEL-2 melanoma): 26.6 µM
- TGI (SK-MEL-28 melanoma): 30 µM
- TGI (SK-MEL-5 melanoma): 28.5 µM
- TGI (SK-OV-3 ovarian): 35.2 µM
- TGI (SN12C renal): 34.8 µM
- TGI (SNB-19 CNS): 32.7 µM
- TGI (SNB-75 CNS): 30.7 µM
- TGI (SR leukemia): > 100 µM
- TGI (SW-620 colon): 37.6 µM
- TGI (T-47D breast): 33.3 µM
- TGI (TK-10 renal): 27.9 µM
- TGI (U251 CNS): 24.8 µM
- TGI (UACC-257 melanoma): 28.7 µM
- TGI (UACC-62 melanoma): 23.2 µM
- TGI (UO-31 renal): 18.1 µM

SMILES: O=C1C[C@H](Sc2ccccc2)C2(OCCO2)[C@H]2ON3CCC[C@@H]3[C@@H]12
- TGI (786-0 renal): 4.98 µM
- TGI (A498 renal): 27.9 µM
- TGI (A549 NSCLC): 13 µM
- TGI (ACHN renal): 5.55 µM
- TGI (BT-549 breast): 16.2 µM
- TGI (CAKI-1 renal): 7.13 µM
- TGI (CCRF-CEM leukemia): 0.829 µM
- TGI (COLO 205 colon): 5.31 µM
- TGI (DU-145 prostate): 6.95 µM
- TGI (EKVX NSCLC): 9.64 µM
- TGI (HCC-2998 colon): 6.69 µM
- TGI (HCT-116 colon): 2.88 µM
- TGI (HCT-15 colon): 4.42 µM
- TGI (HL-60(TB) leukemia): 3.67 µM
- TGI (HOP-62 NSCLC): 5.29 µM
- TGI (HOP-92 NSCLC): 3.92 µM
- TGI (HS 578T breast): > 39 µM
- TGI (HT29 colon): 2.81 µM
- TGI (IGROV1 ovarian): 2.46 µM
- TGI (K-562 leukemia): 8.11 µM
- TGI (KM12 colon): 2.87 µM
- TGI (LOX IMVI melanoma): 3.05 µM
- TGI (M14 melanoma): 7.19 µM
- TGI (MALME-3M melanoma): 4.01 µM
- TGI (MCF7 breast): 3.16 µM
- TGI (MDA-MB-231 breast): 10.9 µM
- TGI (MDA-MB-435): 3.9 µM
- TGI (MDA-N): 13.3 µM
- TGI (MOLT-4 leukemia): 1.85 µM
- TGI (NCI-H226 lung): 26.7 µM
- TGI (NCI-H23 lung): 7.12 µM
- TGI (NCI-H460 lung): 9.55 µM
- TGI (NCI-H522 lung): 2.08 µM
- TGI (NCI/ADR-RES ovarian): 30.8 µM
- TGI (OVCAR-3 ovarian): 2.75 µM
- TGI (OVCAR-4 ovarian): 9.14 µM
- TGI (OVCAR-5 ovarian): 7.8 µM
- TGI (OVCAR-8 ovarian): 11.5 µM
- TGI (PC-3 prostate): 13 µM
- TGI (RPMI-8226 leukemia): 1.33 µM
- TGI (RXF 393 renal): 11 µM
- TGI (SF-268 CNS): 7.25 µM
- TGI (SF-295 CNS): 14.4 µM
- TGI (SF-539 CNS): 7.9 µM
- TGI (SK-MEL-2 melanoma): 13.8 µM
- TGI (SK-MEL-28 melanoma): 7.55 µM
- TGI (SK-MEL-5 melanoma): 21.6 µM
- TGI (SK-OV-3 ovarian): 11.4 µM
- TGI (SN12C renal): 6.29 µM
- TGI (SNB-19 CNS): 19.6 µM
- TGI (SNB-75 CNS): 11.5 µM
- TGI (SR leukemia): 1.95 µM
- TGI (SW-620 colon): 5.82 µM
- TGI (T-47D breast): 7.17 µM
- TGI (TK-10 renal): 13.3 µM
- TGI (U251 CNS): 6.66 µM
- TGI (UACC-257 melanoma): 8.71 µM
- TGI (UACC-62 melanoma): 3.77 µM
- TGI (UO-31 renal): 3.61 µM
